The values below come from patent US4547496A, “Antiulcer [1] benzepino[3,4-b]pyridine and compositions” (Kyowa Hakko Kogyo Co., Ltd., priority 1983, dated 1985).

The test system of one series is male dd-strain mice. The experiment in a line: Test for acute toxicity (minimum lethal dose, 7-day mortality). It counts as in vivo. As to conditions: mortality observed for 7 days; for Acute MLD ip: intraperitoneal. Here is the method: Groups of 5 male dd-strain mice weighing 19 to 21 g were used. The present compounds were administered either orally (0.3 mg/g) or intraperitoneally (0.1 mg/g).
The MLD (minimum lethal dose) was determined by observing the mortality for 7 days after the administration.

The test system of a further series is Male Donryu-strain rats. The experiment in a line: Test for antiulcer activity (restraint and water immersion stress ulcer, lesion index of glandular stomach). It counts as in vivo. As to conditions: Rattus norvegicus, water immersion at 23±1° C. for 7 hours, read-out: Ulcer-inhibition Rate; for inhibition in vivo at 30 mg/kg: po: 30 mg/kg; for inhibition in vivo at 100 mg/kg: po: 100 mg/kg. Here is the method: Test for antiulcer activity
Male Donryu-strain rats weighing 190 to 210 g were starved for 17 hours prior to the test.
Immediately, after an oral administration of the present compounds (30 mg/kg or 100 mg/kg), the rats were immobilized in the stress cage devised by Takagi et al. [Jap. J. Pharmacol., 18, 9 (1968)]. The cage was then immersed vertically in a water bath at 23±1° C. for 7 hours to the height of xiphoid process.
Each rat was then killed with carbon dioxide gas and its stomach was removed. The lengths of the lesions developed on the glandular stomach were summed to give a lesion index for each rat.
Four or five rats were used for each group. The test compounds were dissolved in saline or dissolved or suspended in saline with a suitable amount of polyethylene glycol-400 added or not added. The ulcer-inhibitionrate of each compound was calculated from the following formula by comparing the lesion index of the test group with that of the control group [administered with only the solvent (saline with polyethylene glycol-400 added or not added)]. [formula]

Bounds are passed on as bounds.

Turning to `CCN(CC)CCNC1c2ccccc2OCc2ncccc21` (stereo not drawn) [Compound 1, 5-[2-(Diethylamino)ethyl]amino-5,11-dihydro[1]benzoxepino[3,4-b]pyridine], in the series on male dd-strain mice, the “Acute MLD ip” value was more than 100 mg/kg and the “Acute MLD po” value was more than 300 mg/kg. The inhibition in vivo at 30 mg/kg in the series with Male Donryu-strain rats turned out to be 85%.
For `CN(C)CCNC1c2ccccc2OCc2ncccc21` (stereo not drawn) [Compound 5, 5-[2-(Dimethylamino)ethyl]amino-5,11-dihydro[1]benzoxepino[3,4-b]pyridine], in the series on male dd-strain mice, the “Acute MLD ip” value is given as more than 100 mg/kg and the “Acute MLD po” value is reported as more than 300 mg/kg. In addition, the inhibition in vivo at 30 mg/kg in the series on Male Donryu-strain rats amounted to 78%.
Take `CCN(CC)CCCNC1c2ccccc2OCc2ncccc21` (stereo not drawn) [Compound 7, 5-[3-(Diethylamino)propyl]amino-5,11-dihydro[1]benzoxepino[3,4-b]pyridine]: in the series on male dd-strain mice, the “Acute MLD ip” value is more than 100 mg/kg and the “Acute MLD po” value was more than 300 mg/kg. For the same compound, in the series with Male Donryu-strain rats, the inhibition in vivo at 30 mg/kg amounted to 55%.
In the case of `c1ccc2c(c1)OCc1ncccc1C2NCCN1CCCC1` (stereo not drawn) [Compound 13, 5-[2-(1-Pyrrolidinyl)ethyl]amino-5,11-dihydro[1]benzoxepino[3,4-b]pyridine], in the series on male dd-strain mice, the “Acute MLD ip” value is given as more than 100 mg/kg and the “Acute MLD po” value was more than 300 mg/kg. In the series with Male Donryu-strain rats, the inhibition in vivo at 30 mg/kg was determined as 72%.
For `c1ccc2c(c1)OCc1ncccc1C2NCCN1CCOCC1` (stereo not drawn) [Compound 15, 5-[2-(Morpholino)ethyl]amino-5,11-dihydro[1]benzoxepino[3,4-b]pyridine], in that order: more than 100 mg/kg, more than 300 mg/kg and 73%.
For the compound `CN1CCN(C2c3ccccc3OCc3ncccc32)CC1` (stereo not drawn) [Compound 20, 5-[1-(4-Methyl)piperazinyl]-5,11-dihydro[1]benzoxepino[3,4-b]pyridine], in the series with male dd-strain mice, the “Acute MLD ip” value was more than 100 mg/kg and the “Acute MLD po” value is recorded as more than 300 mg/kg. For the same compound, the inhibition in vivo at 30 mg/kg with Male Donryu-strain rats amounted to 67%.
For `CC(C)N(CCNC1c2ccccc2OCc2ncccc21)C(C)C` (stereo not drawn) [Compound 24, 5-[2-(Diisopropylamino)ethyl]amino-5,11-dihydro[1]benzoxepino[3,4-b]pyridine], in that order: more than 100 mg/kg, more than 300 mg/kg and 88%.
Regarding `CC(C)N(CC(=O)NC1c2ccccc2OCc2ncccc21)C(C)C` (stereo not drawn) [Compound 27, 5,11-Dihydro-5-[(N,N--diisopropylamino)acetyl]amino[1]benzoxepino[3,4-b]pyridine], in the series with male dd-strain mice, the “Acute MLD ip” value is given as more than 100 mg/kg and the “Acute MLD po” value is on record as more than 300 mg/kg. The inhibition in vivo at 100 mg/kg with Male Donryu-strain rats was found to be 79%.
The matching figures for `CCN(CC)CC(=O)NC1c2ccccc2OCc2ncccc21` (stereo not drawn) [Compound 28, 5-[(N,N--diethylamino)acetyl]amino-5,11-dihydro[1]benzoxepino[3,4-b]pyridine]: more than 100 mg/kg, more than 300 mg/kg and 98%.
Consider `CN1CCN(CC(=O)NC2c3ccccc3OCc3ncccc32)CC1` (stereo not drawn) [Compound 29, 5,11-Dihydro-5-[(4-methyl-1-piperazinyl)acetyl]amino[1]benzoxepino[3,4-b]pyridine], for which, in the series on male dd-strain mice, the “Acute MLD ip” value was more than 100 mg/kg and the “Acute MLD po” value is given as more than 300 mg/kg. In the series with Male Donryu-strain rats, the inhibition in vivo at 100 mg/kg was found to be 64%.
For `CNC(=O)N(C)C1c2ccccc2OCc2ncccc21` (stereo not drawn) [Compound 31, 1-(5,11-Dihydro[1]benzoxepino[3,4-b]pyridin-5-yl)1,3-dimethylurea], in that order: more than 100 mg/kg, more than 300 mg/kg and 93%.
For `CCNC(=O)N(CC)C1c2ccccc2OCc2ncccc21` (stereo not drawn) [Compound 36, 1-(5,11-Dihydro[1]benzoxepino[3,4-b]pyridin-5-yl)1,3-diethylurea], in that order: more than 100 mg/kg, more than 300 mg/kg and 81%.
